Reference: PubChem BioAssay AID248 (DTP/NCI, 2004)
Inconclusive results and toxic doses are left out. Rule as the data show it: active = T/C of 150% or more; inactive = T/C below 125%. Square brackets hold non-standard residues; d marks the D form. Peptide text beside a SMILES is read from it. ξ: configuration not given here. ξF = NC(Cc1ccccc1)C(=O)O

Test system: L1210 leukemia ip in BDF1 mice, survival T/C
Test: NCI In Vivo Anticancer Drug Screen. Data for tumor model L1210 Leukemia (intraperitoneal) in B6D2F1 (BDF1) mice
Conditions: endpoint: mean survival time, higher = longer survival
How it was run: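 Read-out is survival time, reported as the treated-group measurement over the vehicle-control measurement.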

[1] = dose: 100.0 mg/kg/injection, schedule: Q04DX003 (ip), vehicle: acetone
[2] = dose: 200.0 mg/kg/injection, schedule: Q04DX003 (ip), vehicle: acetone
[3] = dose: 400.0 mg/kg/injection, schedule: Q04DX003 (ip), vehicle: acetone
[4] = dose: 50.0 mg/kg/injection, schedule: Q01DX009 (ip), vehicle: Klucel (hydroxypropylcellulose) (HPC)
[5] = dose: 50.0 mg/kg/injection, schedule: Q01DX009 (ip), vehicle: saline with Tween-80
[6] = dose: 100.0 mg/kg/injection, schedule: Q01DX009 (ip), vehicle: saline with Tween-80
[7] = dose: 200.0 mg/kg/injection, schedule: Q01DX009 (ip), vehicle: saline with Tween-80
[8] = dose: 100.0 mg/kg/injection, schedule: Q01DX001 (ip), vehicle: carboxymethylcellulose (CMC)
[9] = dose: 200.0 mg/kg/injection, schedule: Q01DX001 (ip), vehicle: carboxymethylcellulose (CMC)
[10] = dose: 400.0 mg/kg/injection, schedule: Q01DX001 (ip), vehicle: carboxymethylcellulose (CMC)
[11] = dose: 100.0 mg/kg/injection, schedule: Q04DX003 (ip), vehicle: Klucel (hydroxypropylcellulose) (HPC)
[12] = dose: 200.0 mg/kg/injection, schedule: Q04DX003 (ip), vehicle: Klucel (hydroxypropylcellulose) (HPC)

Measured: T/C

c1ccc2nc3ccccc3c-2cc1
inactive: [1] 95 % of control | [2] 98 % of control | [3] 95 % of control

ONC12CC3CC(CC(C3)C1)C2
inactive: dose: 12.5 mg/kg/injection, schedule: Q01DX009 (ip), vehicle: Klucel (hydroxypropylcellulose) (HPC) 98 % of control | dose: 25.0 mg/kg/injection, schedule: Q01DX009 (ip), vehicle: Klucel (hydroxypropylcellulose) (HPC) 95 % of control | [4] 95 % of control | dose: 100.0 mg/kg/injection, schedule: Q01DX001 (ip), vehicle: Klucel (hydroxypropylcellulose) (HPC) 97 % of control

CC(=O)Oc1ccc2c(c1)C(=O)CCCC2
inactive: [5] 88 % of control | [6] 88 % of control | [7] 88 % of control

COc1ccc(C2=NNc3n[nH]c(=S)n3N2)cc1OC
inactive: [4] 96 % of control | dose: 100.0 mg/kg/injection, schedule: Q01DX009 (ip), vehicle: Klucel (hydroxypropylcellulose) (HPC) 96 % of control | dose: 200.0 mg/kg/injection, schedule: Q01DX009 (ip), vehicle: Klucel (hydroxypropylcellulose) (HPC) 112 % of control

O=C(Oc1ccccc1)C(Cc1ccccc1)(Cc1ccccc1)C(=O)Oc1ccccc1
inactive: [8] 101 % of control | [9] 95 % of control | [10] 93 % of control

CCOC(=O)/C=C/Cc1cc(-c2ccccc2)ccc1O
inactive: [1] 98 % of control | [2] 98 % of control | [3] 103 % of control

S=c1nc[nH]c2c1[nH]c(=S)n2CCc1cnc[nH]1
inactive: dose: 24.0 mg/kg/injection, schedule: Q01DX009 (ip), vehicle: steriod suspending solution 98 % of control | dose: 39.0 mg/kg/injection, schedule: Q01DX009 (ip), vehicle: steriod suspending solution 100 % of control | dose: 65.0 mg/kg/injection, schedule: Q01DX009 (ip), vehicle: steriod suspending solution 102 % of control | dose: 108.0 mg/kg/injection, schedule: Q01DX009 (ip), vehicle: steriod suspending solution 88 % of control | dose: 400.0 mg/kg/injection, schedule: Q01DX001 (ip), vehicle: steriod suspending solution 94 % of control

Oc1cccc2cccnc12.[Cu+].[O-]c1cccc2cccnc12
inactive: dose: 2.5 mg/kg/injection, schedule: Q01DX009 (ip), vehicle: saline 97 % of control | dose: 2.5 mg/kg/injection, schedule: Q04DX003 (ip), vehicle: alcohol 98 % of control | dose: 5.0 mg/kg/injection, schedule: Q01DX009 (ip), vehicle: saline 108 % of control | dose: 5.0 mg/kg/injection, schedule: Q04DX003 (ip), vehicle: alcohol 112 % of control | dose: 10.0 mg/kg/injection, schedule: Q01DX009 (ip), vehicle: saline 98 % of control | dose: 10.0 mg/kg/injection, schedule: Q04DX003 (ip), vehicle: alcohol 104 % of control

O=C(/C=C/c1ccco1)c1cccc([N+](=O)[O-])c1
inactive: dose: 100.0 mg/kg/injection, schedule: Q01DX001 (ip), vehicle: saline with Tween-80 97 % of control | dose: 200.0 mg/kg/injection, schedule: Q01DX001 (ip), vehicle: saline with Tween-80 95 % of control | dose: 400.0 mg/kg/injection, schedule: Q01DX001 (ip), vehicle: saline with Tween-80 92 % of control

Cc1c(CC=C(c2ccccc2)c2ccccc2)cccc1C[N+](C)(C)C
inactive: dose: 5.0 mg/kg/injection, schedule: Q01DX001 (ip), vehicle: carboxymethylcellulose (CMC) 101 % of control | dose: 10.0 mg/kg/injection, schedule: Q01DX001 (ip), vehicle: carboxymethylcellulose (CMC) 106 % of control | dose: 20.0 mg/kg/injection, schedule: Q01DX001 (ip), vehicle: carboxymethylcellulose (CMC) 98 % of control | dose: 40.0 mg/kg/injection, schedule: Q01DX001 (ip), vehicle: carboxymethylcellulose (CMC) 90 % of control | dose: 80.0 mg/kg/injection, schedule: Q01DX001 (ip), vehicle: carboxymethylcellulose (CMC) 90 % of control | [8] 93 % of control

O=C1C2CCN(CC2)C1CN1CCC(O)(c2ccc(Cl)cc2)CC1 (centres undefined)
inactive: [11] 104 % of control | [12] 101 % of control

C=CC1CCCCC1C=C (centres undefined)
inactive: dose: 12.5 mg/kg/injection, schedule: Q01DX009 (ip), vehicle: saline with Tween-80 104 % of control | dose: 25.0 mg/kg/injection, schedule: Q01DX009 (ip), vehicle: saline with Tween-80 102 % of control | [5] 102 % of control

CSc1ccc(NC(=O)CCCc2ccc(N(CCCl)CCCl)cc2)cc1
inactive: dose: 4.0 mg/kg/injection, schedule: Q12HX018 (ip), vehicle: other 103 % of control | dose: 6.0 mg/kg/injection, schedule: Q12HX018 (ip), vehicle: other 108 % of control | dose: 8.0 mg/kg/injection, schedule: Q12HX018 (ip), vehicle: other 115 % of control

Cc1cc2oc(/C=C/C(=O)c3ccc([N+](=O)[O-])cc3)c(C)c2cc1C
inactive: [11] 97 % of control | [12] 90 % of control | dose: 400.0 mg/kg/injection, schedule: Q04DX003 (ip), vehicle: Klucel (hydroxypropylcellulose) (HPC) 100 % of control

OCCC=C(c1ccccc1)c1ccccc1
inactive: [5] 107 % of control | [6] 100 % of control | [7] 104 % of control

CCOC(=O)C(CO)(CC(CO)(C(C)=O)C(=O)OCC)C(C)=O (centres undefined)
inactive: dose: 222.0 mg/kg/injection, schedule: Q01DX Z (ip), vehicle: methylcellulose (MC) 98 % of control | dose: 333.0 mg/kg/injection, schedule: Q01DX Z (ip), vehicle: methylcellulose (MC) 110 % of control | dose: 500.0 mg/kg/injection, schedule: Q01DX Z (ip), vehicle: methylcellulose (MC) 108 % of control

NC(Cc1ccccc1)C(=O)NCC(=O)NCC(=O)O (stereo not drawn) (H-[ξF]-Gly-Gly-OH)
inactive: [6] 107 % of control | dose: 100.0 mg/kg/injection, schedule: Q04DX003 (ip), vehicle: saline with Tween-80 102 % of control | [7] 91 % of control | dose: 200.0 mg/kg/injection, schedule: Q04DX003 (ip), vehicle: saline with Tween-80 104 % of control | dose: 400.0 mg/kg/injection, schedule: Q01DX009 (ip), vehicle: saline with Tween-80 89 % of control | dose: 400.0 mg/kg/injection, schedule: Q04DX003 (ip), vehicle: saline with Tween-80 98 % of control

O=C(CCCC(=O)N/N=C/c1ccc(O)cc1O)N/N=C\c1ccc(O)cc1O
inactive: dose: 50.0 mg/kg/injection, schedule: Q01DX001 (ip), vehicle: saline 90 % of control | dose: 100.0 mg/kg/injection, schedule: Q01DX001 (ip), vehicle: saline 96 % of control | dose: 200.0 mg/kg/injection, schedule: Q01DX001 (ip), vehicle: saline 96 % of control | dose: 400.0 mg/kg/injection, schedule: Q01DX001 (ip), vehicle: saline 93 % of control

CN(C)c1ccc2c(c1)C(=O)c1cc(Br)ccc1-2
inactive: [8] 105 % of control | [9] 100 % of control | [10] 108 % of control
